Results as given in patent US20260109712A1, “RIFAMYCINS FOR NONTUBERCULOUS MYCOBACTERIA” (priority 2022, published 2026).
In brackets after ≈: the same amount, converted by molar mass. Read-outs that look alike come from different tables or passages of the source.

Experiments:
[1] = test system: M. avium subsp. hominisuis MAC109; test: MIC, anti-mycobacterial profiling; assay type: cell-based, Mycobacterium avium; conditions: for MIC: mean of two experiments
M. fortuitum = test: MIC, Table 9; assay type: cell-based, Mycobacterium fortuitum
[2] = test system: M. abscessus subspecies abscessus; test: MIC, Table 9; assay type: cell-based, Mycobacterium abscessus; conditions: for MIC: M. abscessus subspecies abscessus
M. abscessus Bamboo [3] = test: Broth MBC90 (bMBC90); assay type: cell-based, Mycobacterium abscessus; conditions: broth, 5 days
Source text: Broth MIC, broth MBC90 (bMBC90), and caseum surrogate MBC90 ([…]) of clinically used antibiotics and of novel ADP-ribosylation-resistant rifabutin analogs against M. abscessus Bamboo have been evaluated.

M. chelonae ATCC 35752 = test: MIC, anti-mycobacterial profiling; assay type: cell-based, Mycobacterium chelonae; conditions: for MIC: mean of two experiments
M. chimaera CCUG 50989T = test: MIC, anti-mycobacterial profiling; assay type: cell-based, Mycobacterium chimaera; conditions: for MIC: mean of two experiments
M. abscessus ATCC 19977 = test: MIC assay in 96-well plate format, wild-type strain; assay type: cell-based, Mycobacterium abscessus; conditions: for MIC ratio: WT MIC/Δarr strain MIC
Summary of the method: (§1)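 Two-fold, ten-point dilutions in 7H9 with 2% DMSO; mid-log culture diluted to OD600=0.1 (1×10^7 CFU/mL). Incubated 3 days at 37 °C, shaking 110 RPM; growth = Day 3 minus Day 0 OD600, expressed as percentage of drug-free growth and plotted against concentration. Two biological replicates.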

Δarr M. abscessus = test: MIC assay, isogenic arr-deleted strain; assay type: cell-based, Mycobacterium abscessus; conditions: arr-deleted strain; 90% growth inhibition
Summary of the method: as §1

M. abscessus Bamboo [4] = test: Caseum surrogate MBC90 (cMBC90) kill assay; assay type: cell-based, Mycobacterium abscessus; conditions: for cMBC90/bMBC90: 5-day assays; for MBC: read-out: cMBC90
Source text: (§2) The surrogate matrix was generated as described previously from cultured THP-1 cells (ATCC TIB-202) (mBio, 2023, 14, e0059823). M. abscessus exponential cultures grown in Middlebrook 7H9 broth (Sigma Aldrich) (OD600 0.6-0.9) were spun down and resuspended in water to an OD600 of 7, 0.7, and 0.07. As described for the M. tuberculosis caseum surrogate assay (mnBio, 2023, 14, e0059823), the bacterial suspensions (at three different dilutions resulting in ˜10^9, 10^8, and 10^7 starting CFU/mL, represented by circle, square, and triangle indicators respectively) were added to the caseum surrogate in the ratio 2:1 (vol/wt), briefly homogenized with 1.4-mm zirconia beads, divided evenly into nine 1.5-mL microcentrifuge tubes, and incubated as standing cultures at 37° C. At the indicated time points, tubes were removed and used for CFU enumeration by plating on Middlebrook 7H11 agar (Sigma Aldrich). Separate tubes were used at each time point. To determine the kill curves, cultures with a starting CFU/mL of 10^8 were used (resulting in the middle curve with square indicators). Arrows indicate the time points when drugs were added and the end of the treatment. The experiment was repeated three times independently, yielding similar results. A representative example is shown. Dots and error bars represent means and standard deviations of three technical replicates, respectively.
FIGS. 29A-29M show the Dose-response kill curves against M. abscessus Bamboo in caseum surrogate. M. abscessus cultures were set up as described in the legend of FIG. 28. Bacterial cell suspensions were added to yield a starting CFU of 10^8/mL (FIG. 28, middle growth curve with square indicators). […] The shaded areas indicate drug concentration windows achieved in caseum in vivo. (Antimicrob. Agents Chemother., 2021, 65, e0050621; Antimicrob. Agents Chemother., 2022, 66, e0221221; PLoS Med., 2019, 16, e1002773; ACS Infect. Dis., 2016, 2, 251-267). The experiment was repeated twice independently, yielding similar results. A representative example is shown. Dots and error bars represent means and standard deviations of three technical replicates, respectively. Horizontal dotted lines indicate the cutoff for 1 log reduction in CFU compared to 10-day drug-free control culture. The cMBC90 values shown in Table 16 are the drug concentrations that reduce CFU by 90% relative to the CFU of drug-free controls at day 10. Since the cultures were in the stationary phase on day 5 when drug treatment started, the CFUs of the drug-free cultures at day 10 were similar to the CFUs of the drug-free cultures at day 5 (FIG. 28).
as §2, with “(doi: 10.1128/mbio.00598-23).” for “(mBio, 2023, 14, e0059823).”, “(doi: 10.1128/mbio.00598-23),” for “(mnBio, 2023, 14, e0059823),”, “CFU/mL)” for “CFU/mL, represented by circle, square, and triangle indicators respectively)”, “curves for the drugs,” for “curves,”, “used.” for “used (resulting in the middle curve with square indicators). Arrows indicate the time points when drugs were added and the end of the treatment.”, “results.” for “results. A representative example is shown. Dots and error bars represent means and standard deviations of three technical replicates, respectively.”
The experiment was repeated twice independently, yielding similar results. A representative example is shown. The cMBC90 values shown in Table 16 are the drug concentrations that reduce CFU by 90% relative to the CFU of drug-free controls at day 10. […]

M. fortuitum ATCC 6841 = test: MIC, anti-mycobacterial profiling; assay type: cell-based, Mycobacterium fortuitum; conditions: for MIC: mean of two experiments
[5] = Mycobacteroides abscessus, 120 h
[6] = Mycobacteroides chelonae, ATCC35752
[7] = Mycobacteroides abscessus, ATCC19977, M. abscessus ATCC 19977, 90% growth inhibition, read-out: WT Mab MIC
[8] = Mycobacteroides abscessus, ATCC19977, M. abscessus subsp. abscessus ATCC 19977, mean of two experiments, read-out: MIC
[9] = Mycolicibacterium fortuitum, ATCC6841

`CO[C@H]1/C=C/O[C@@]2(C)Oc3c(C)c(O)c4c(c3C2=O)C2=NC3(CCN(CC(C)C)CC3)NC2=C(NC(=O)/C(C)=C/C=C/[C@H](C)[C@H](O)[C@@H](C)[C@@H](O)[C@@H](C)[C@H](OC(=O)c2cccnc2)[C@@H]1C)C4=O` [5m, 25-O-(3-pyridinecarbonyl)-25-O-desacetyrifabutin] was tested, and the “Fold improvement (RFB-5m vs RFB)” value [1] was 0.8, the MIC [1] was 0.04 µM (≈ 0.0364 µg/mL) and the MIC (M. fortuitum) was 0.01 µM (≈ 0.0091 µg/mL). For the same molecule, the fold improvement (M. fortuitum; 5m vs rifabutin) was 60, the fold improvement ([2]; 5m vs rifabutin, subspecies abscessus) was 30 and the MIC [2] was 0.05 µM (≈ 0.0455 µg/mL). The MBC (M. abscessus Bamboo [3]) was 0.16 µM (≈ 0.146 µg/mL), the “Fold improvement (RFB-5m vs RFB)” value (M. chelonae ATCC 35752) was 30 and the MIC (M. chelonae ATCC 35752) was 0.02 µM (≈ 0.0182 µg/mL). For the same molecule, the “Fold improvement (RFB-5m vs RFB)” value (M. chimaera CCUG 50989T) was 0.8, the MIC (M. chimaera CCUG 50989T) was 0.06 µM (≈ 0.0546 µg/mL) and the “Mab 19977 MIC” value (M. abscessus ATCC 19977; 90% inhibition of bacterial growth) was 0.025 µM. For the same molecule, the MIC (M. abscessus ATCC 19977; M. abscessus ATCC 19977, 90% growth inhibition, read-out: WT Mab MIC) was 0.024 µM (≈ 0.0218 µg/mL), the “Fold improvement (RFB-5m vs RFB)” value (M. abscessus ATCC 19977; M. abscessus subsp. abscessus ATCC 19977) was 55 and the MIC (M. abscessus ATCC 19977; M. abscessus subsp. abscessus ATCC 19977, mean of two experiments, read-out: MIC) was 0.02 µM (≈ 0.0182 µg/mL). The MIC (M. abscessus ATCC 19977; PK tables 2 and 8, read-out: WT MIC) was 0.024 µM (≈ 0.0218 µg/mL), the MIC ratio (M. abscessus ATCC 19977) was 0.9 and the “Δarr Mab MIC” value (Δarr M. abscessus) was 0.026 µM. For the same molecule, the cMBC90/bMBC90 (M. abscessus Bamboo [4]) was 12.5, the MBC (M. abscessus Bamboo [4]; caseum surrogate, 5 days, 90% CFU reduction vs drug-free control) was 2 µM (≈ 1.82 µg/mL) and the “Fold improvement (RFB-5m vs RFB)” value (M. fortuitum ATCC 6841) was 60. The MIC (M. fortuitum ATCC 6841) was 0.02 µM (≈ 0.0182 µg/mL).
`CC[C@H]1OC(=O)[C@H](C)[C@@H](O[C@H]2C[C@@](C)(OC)[C@@H](O)[C@H](C)O2)[C@H](C)[C@@H](O[C@@H]2O[C@H](C)C[C@H](N(C)C)[C@H]2O)[C@](C)(OC)C[C@@H](C)C(=O)[C@H](C)[C@@H](O)[C@]1(C)O` [clarithromycin, reference compound] showed an MIC ([1]; Mycobacterium avium) of 0.5 µM (≈ 0.374 µg/mL), an MBC (M. abscessus Bamboo [3]; [5]) of 2 µM (≈ 1.5 µg/mL) and an MIC (M. chelonae ATCC 35752; [6]) of 0.1 µM (≈ 0.0748 µg/mL). It also gave an MIC (M. chimaera CCUG 50989T; CCUG50989T) of 0.8 µM (≈ 0.598 µg/mL), an MIC (M. abscessus ATCC 19977; [7]) of 1.45 µM (≈ 1.08 µg/mL) and an MIC (M. abscessus ATCC 19977; [8]) of 1.5 µM (≈ 1.12 µg/mL). The MIC ratio (M. abscessus ATCC 19977) was 0.7, the “Δarr Mab MIC” value (Δarr M. abscessus) was 1.8 µM and the cMBC90/bMBC90 (M. abscessus Bamboo [4]) was 64. The MBC (M. abscessus Bamboo [4]; [5]) was 128 µM (≈ 95.7 µg/mL) and the MIC (M. fortuitum ATCC 6841; [9]) was 3.2 µM (≈ 2.39 µg/mL).
For `CO[C@H]1/C=C/O[C@@]2(C)Oc3c(C)c(O)c4c(c3C2=O)C2=NC3(CCN(CC(C)C)CC3)NC2=C(NC(=O)/C(C)=C\C=C\[C@H](C)[C@H](O)[C@@H](C)[C@@H](O)[C@@H](C)[C@H](OC(C)=O)[C@@H]1C)C4=O` [rifabutin, reference compound], the MIC ([1]; Mycobacterium avium) was 0.03 µM (≈ 0.0254 µg/mL), the MIC (M. fortuitum; Mycolicibacterium fortuitum) was 0.6 µM (≈ 0.508 µg/mL) and the MIC ([2]; Mycobacteroides abscessus) was 1.5 µM (≈ 1.27 µg/mL). The MBC (M. abscessus Bamboo [3]; [5]) was 5 µM (≈ 4.24 µg/mL), the MIC (M. chelonae ATCC 35752; [6]) was 0.6 µM (≈ 0.508 µg/mL) and the MIC (M. chimaera CCUG 50989T; CCUG50989T) was 0.05 µM (≈ 0.0424 µg/mL). The MIC (M. abscessus ATCC 19977; [7]) was 1.15 µM (≈ 0.974 µg/mL), the MIC (M. abscessus ATCC 19977; [8]) was 1.1 µM (≈ 0.932 µg/mL) and the MIC (M. abscessus ATCC 19977; Mycobacteroides abscessus, ATCC19977, PK tables 2 and 8, read-out: WT MIC) was 1.15 µM (≈ 0.974 µg/mL). The MIC ratio (M. abscessus ATCC 19977) was 39.3, the “Δarr Mab MIC” value (Δarr M. abscessus) was 0.031 µM and the cMBC90/bMBC90 (M. abscessus Bamboo [4]) was 16. For the same molecule, the MBC (M. abscessus Bamboo [4]; [5]) was 72 µM (≈ 61 µg/mL) and the MIC (M. fortuitum ATCC 6841; [9]) was 1.2 µM (≈ 1.02 µg/mL).
